Results as given in patent US11058713B2, “Treatment and diagnosis of ocular surface disorders” (Advaite LLC., priority 2017, dated 2021).
Entries after “also recorded” stand apart in the source; their conditions may differ. Values belong to the molecule of their own block, whether it stands above or below them.

Legend:
stimulated neutrophils = experiment: Stimulated neutrophils: inflammatory products (green staining strands), photographs; format: cell-based
[1] = system: neutrophil inflammatory products; experiment: Kinetic assay of neutrophil inflammatory products, stimulation by 1 nM PMA; format: cell-based; conditions: FIGS. 9A and 9B
[2] = system: mucocellular aggregates from a patient with severe tear deficient DED; experiment: Ex vivo dissolution of mucocellular aggregates (Hematoxylin-Eosin and Sytox Green); parameters: species or system human; conditions: sub-anticoagulant heparin 100 IU/ml; substantially intact with culture media (RPMI) only
Description: The extracellular structures (green strands) were dissolved when treated with sub-anticoagulant heparin (100 IU/ml), but remained substantially intact when treated with only the culture media (RPMI).

murine corneas = experiment: Murine model of neutrophil product (NETs) induced corneal disease; format: in vivo
Description: Neutrophil products (NETs) when applied to corneal surface induced epithelial disease and fluorescein staining. […] Protein levels of inflammatory cytokines were also determined (IL-lb and IP-10) using a Magpix platform.
Whether reducing OSM levels in naive NETs using heparin or OSM NAb abrogates NETs induced epitheliopathy in murine corneas was investigated. Naive NETs, heparinized NETs and OSM NAb incubated NETs was applied to naïve murine corneas for five consecutive days. […] At Day 5, corneas were excised and abundance of inflammatory cytokines (IL-1β, IL-6 and IP-10) were determined in lysates. […] FIG. 16.

oncostatin M (OSM) [3] = experiment: Recombinant OSM protein levels after incubation with heparin or NAb; format: binding; conditions: FIG. 15
Description: (§1) The molecular component of Neutrophil Extracellular Traps (NETs) that may cause epitheliopathy was investigated. […] OSM was present in abundance in mucocellular aggregates (MCA) collected from definite oGVHD patients. OSM is a heparin binding protein, therefore incubation with heparin or Neutralizing antibody (NAb) reduced recombinant OSM protein levels (FIG. 15).

human MG cells = experiment: Meibomian gland cell proliferation; format: cell-based; conditions: KSFM medium with rNGAL; reduction with rNGAL on addition of NGAL NAb or heparin
Source text: Next, the effect of NGAL on proliferation of human MG cells was investigated. […] FIG. 20. […] The reduction of MG cell proliferation with rNGAL was abrogated with addition of NGAL NAb and heparin.

[4] = system: human corneal epithelial cells; experiment: Scratch wound healing of confluent corneal epithelial cells; format: cell-based; conditions: anticoagulant dose heparin 1000 and 10,000 IU/ml; versus RPMI control and 100 IU/ml
Description: In this experiment human corneal epithelial cells were grown to confluence and scratch wounds were made.

[5] = system: human corneal epithelial cells; experiment: Cytotoxicity assay (LDH); format: cell-based
mouse corneas = experiment: Recombinant OSM protein induced corneal epithelial disease; format: in vivo; conditions: for corneal fluorescein staining at Day 5: application of OSM, OSM incubated with heparin or OSM incubated with OSM NAb
Source text: Excessive amounts of OSM can cause corneal epithelial disease similar to that seen in DED patients. […] OSM inhibitors used can be selected from neutralizing antibodies, neutralizing peptides and small molecules and other gene based approaches. These OSM inhibitors can be used independently as therapeutic proteins/peptides/small molecules for DED treatment.
In addition, whether OSM recombinant protein can produce epitheliopathy similar to NETs and whether reducing OSM levels using heparin or OSM NAb abrogates that effect was also investigated. […] These experiments indicate that NETs cause corneal epitheliopathy possibly due to presence of OSM and epitheliopathy can be prevented with heparin. To test this theory, a patient with oGVHD who had corneal and conjunctival epitheliopathy was treated with heparin eye drop (100 IU/mL) three times a day for four weeks.

oncostatin M (OSM) [6] = target: T1, oncostatin M (OSM) (Mus musculus, UniProt P53347); experiment: OSM levels in murine NETs; format: binding; conditions: 614.67±95.73 pg/mL without heparin
T1 construct: In murine NETs, OSM is present in great abundance; endogenous in cells; host or cells: murine neutrophil extracellular traps (NETs)
T1 sequence (P53347 23-206): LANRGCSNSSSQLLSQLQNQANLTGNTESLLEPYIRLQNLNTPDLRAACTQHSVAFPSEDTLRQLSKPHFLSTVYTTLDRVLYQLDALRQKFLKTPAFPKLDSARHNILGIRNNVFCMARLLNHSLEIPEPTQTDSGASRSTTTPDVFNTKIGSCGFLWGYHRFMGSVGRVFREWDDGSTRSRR
Description: as §1

[7] = system: immortalized meibomian gland epithelial cells; experiment: Meibomian gland cell differentiation, lipid accumulation by LipidTOX staining; format: cell-based, human
Source text: Meibomian gland disease is a conspicuous feature of oGVHD. As compared to normal meibomian gland, patients with oGVHD have extensive atrophy or truncation of meibomian glands. […] To determine the effect of NETs on meibomian glands, immortalized meibomian gland epithelial cells were cultivated and differentiated. Lipid accumulation was detected using LipidTOX staining. […] The reduction in lipid accumulation with NETs was abrogated with addition of NGAL NAb (21.21±0.83 A.U). […] The reduction of lipid accumulation with rNGAL was abrogated with addition of NGAL NAb (17.82±0.43 A.U) and heparin (15.66±1.72 A.U).

[8] = Heparin addition to NETs, protein level, Magpix platform
[9] = DFM medium with rNGAL, rNGAL plus NGAL NAb or rNGAL plus heparin, DFM alone 24.92±1.21

Molecule: Enoxaparin
neutrophil inflammatory products (green staining strands) (stimulated neutrophils; Enoxaparin 10, 20, 40 and 80 μg/mL, FIG. 6): dose dependent fashion
inflammatory strands of neutrophils (stimulated neutrophils; Enoxaparin at 80 μg/mL): almost completely
amount of neutrophil inflammatory products produced with stimulation by 1 nM PMA [1]: dose dependent reduction; also recorded: dose dependent manner

Epithelial cell healing (scratch wounds) [4]: significantly delayed
OSM levels in heparinized NETs (oncostatin M (OSM) [6]): 19.95 ± 0.00 pg/mL
Molecule: heparin
extracellular structures (green strands) of mucocellular aggregates [2]: dissolved
epithelial disease and fluorescein staining (murine corneas; Heparin (100 IU/ml) added to NETs applied to corneal surface): significantly reduced
corneal abundance of IL-lb (murine corneas; [8]): significantly reduced
corneal abundance of IP-10 (murine corneas; [8]): significantly reduced
corneal fluorescein staining at Day 5 (murine corneas; naive NETs, heparinized NETs or OSM NAb incubated NETs applied to naïve murine corneas for five consecutive days): 0.80±0.49
recombinant OSM protein levels (oncostatin M (OSM) [3]): reduced
MG cell proliferation (human MG cells): abrogated
neutrophil inflammatory products (green staining strands) (stimulated neutrophils; heparin 0.01, 0.1, 1, 10 and 100 IU/mL, FIG. 5): dose dependent fashion
amount of inflammatory strands of neutrophils (stimulated neutrophils; heparin at 100 IU/ml): almost completely
LDH ([5]; anticoagulant dose heparin 1000 and 10,000 IU/ml, versus RPMI control and 100 IU/ml): significantly higher
human corneal epithelial cell cytotoxicity ([5]; anticoagulant dose of heparin (1000 and 10,000 IU/ml)): causes human corneal epithelial cell cytotoxicity
human corneal epithelial cell cytotoxicity ([5]; sub-anticoagulant dose of heparin (100 IU/ml)): does not cause cytotoxicity
corneal fluorescein staining at Day 5 (mouse corneas): 1.20±0.20
corneal fluorescein staining induced by OSM (mouse corneas; heparin 100 IU/ml or neutralizing antibody added to recombinant OSM, FIG. 13): significantly reduced
amount of neutrophil inflammatory products produced with stimulation by 1 nM PMA [1]: dose dependent reduction; also recorded: dose dependent manner
fluorescence intensity of LipidTox Green neutral lipid stain (accumulation of lipids) ([7]; DFM medium with NETs, heparinized NETs or NETs plus NGAL NAb, DFM alone 24.92±1.21, KSFM 6.93±0.57): 33.98±2.18 A.U
fluorescence intensity of LipidTox Green neutral lipid stain (accumulation of lipids) [7, 9]: 15.66±1.72 A.U

B1: rNGAL: recombinant NGAL (neutrophil gelatinase-associated lipocalin) (protein, UniProt P80188 21-198, looked up)
Neutrophil …: QDSTSDLIPAPPLSKVPLQQNFQDNQFQGKWYVVGLAGNAILREDKDPQKMYATIYELKEDKSYNVTSVLFRKKKCDYWIRTFVPGCQPGEFTLGNIKSYPGLTSYLVRVVSTNYNQHAMVFFKKVSQNREYFKITLYGRTKELTSELKENFIRFSKSLGLPENHIVFPVPIDQCIDG
MG cell proliferation (human MG cells): significantly decreased
fluorescence intensity of LipidTox Green neutral lipid stain (accumulation of lipids) [7, 9]: 10.88±0.35 A.U

B2: OSM: OSM recombinant protein applied to mouse corneas (protein, UniProt P53347 25-206, looked up)
Oncostatin-M: NRGCSNSSSQLLSQLQNQANLTGNTESLLEPYIRLQNLNTPDLRAACTQHSVAFPSEDTLRQLSKPHFLSTVYTTLDRVLYQLDALRQKFLKTPAFPKLDSARHNILGIRNNVFCMARLLNHSLEIPEPTQTDSGASRSTTTPDVFNTKIGSCGFLWGYHRFMGSVGRVFREWDDGSTRSRR
corneal fluorescein staining at Day 5 (mouse corneas): 8.75±0.48
